One assay relates to TBI mice. Nature of the assay: Rotarod motor function in controlled cortical impact (CCI) model of TBI. It counts as in vivo, mouse. Particulars: 20 mg/kg, ip, one day before TBI, day of TBI and day 1 after; measured day 1 after TBI. As for the experimental part:
(§1) FIGS. 13a-13e show traumatic brain injury (TBI) in mice results in elevated brain cathepsin B activity, involved in motor deficit. […] Mice were subjected to the controlled cortical impact (CCI) model of TBI. Motor function was assessed by the rotarod assay on days 1, 3, and 7 after TBI. Control sham mice received surgery of the scalp but no TBI. Rotarod data are shown as mean+SD (n=5/group, mean+sem, *p<0.05, student's t-test). […] The TBI injury was conducted on the ipsilateral side of the brain cortex, shown by the tissue lesion at the site of TBI impact. […] Cathepsin B activity in homogenate of mouse brain cortex was measured with the Z-Nle-Lys-Arg-AMC substrate on day 6 after TBI. These TBI mice were treated with vehicle or Z-Arg-Lys-AOMK inhibitor (20 mg/kg, ip). (n=6 per group for vehicle-treated, and n=4 per group for treatment with inhibitor Z-Arg-Lys-AOMK; mean+sem, p<0.05, student's t-test).
TBI mice were treated with Z-Arg-Lys-AOMK inhibitor (20 mg/kg, ip) one day before TBI, on the day of TBI, and on day 1 after TBI. Motor function was measured on day 1 after TBI. (n=6 per group for vehicle-treated, and n=4 per group for treatment with inhibitor Z-Arg-Lys-AOMK; mean+sem, p<0.05, student's t-test).

The target of assay [1] is T1, cathepsin B (Mus musculus, UniProt P10605).
T1 construct: from tissue; host or cells: mouse ipsilateral brain cortex (homogenate and cytosol) after controlled cortical impact TBI
T1 sequence (P10605 80-333): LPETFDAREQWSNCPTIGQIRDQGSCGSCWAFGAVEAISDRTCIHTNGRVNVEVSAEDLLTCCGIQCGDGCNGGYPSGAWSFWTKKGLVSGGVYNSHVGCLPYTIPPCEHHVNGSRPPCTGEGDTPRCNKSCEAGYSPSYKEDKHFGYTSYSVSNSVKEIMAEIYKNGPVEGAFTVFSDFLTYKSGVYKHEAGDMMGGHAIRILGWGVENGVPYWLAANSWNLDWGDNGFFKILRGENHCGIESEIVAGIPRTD
Nature of the assay: Cathepsin B activity in ipsilateral brain cortex of TBI mice. In kind it is in vivo. Particulars: 20 mg/kg, ip; day 6 after TBI. How it is done: as §1
Cytosol from brain homogenate (obtained on day 6 after TBI) was isolated by differential density centrifugation. Cathepsin B in the cytosol from brain cortex was measured by the substrate Z-Nle-Lys-Arg-AMC substrate. (n=6 per group for vehicle treated, and n=4 per group for treatment with inhibitor Z-Arg-Lys-AOMK: mean+sem, p<0.05, student's t-test).

Assay [2] has as its target T1, cathepsin B. Nature of the assay: Cytosolic cathepsin B activity in microglia cells during low nutrient stress. It counts as cell-based. As to conditions: 2 μM; 0% FBS for 24 hours; substrate Z-Nle-Lys-Arg-AMC. As for the experimental part: (§2) Regulation of cathepsin B activity during cell death induced by low nutrient stress in microglia cells. […] Microglia cells (mouse BV2 cells) were treated with low nutrient culture media (0% fetal bovine serum, FBS) compared to a normal nutrient condition (10% FSB) for 24 hours. The low nutrient stress condition induced cell death monitored by LDH (lactate dehydrogenase) released into the culture media. The stress-induced increase in cell death was reduced by the inhibitor Z-Arg-Lys-AOMK (2 μM), a selective inhibitor of cathepsin B. (n=6, mean+sem, *p<0.05, student's t-test). […] Cathepsin B activity was elevated in cytosol isolated from microglia cells after treatment with low nutrient stress (0% FBS) for 24 hours. Cathepsin B activity was measured with the specific substrate Z-Nle-Lys-Arg-AMC ([…] in assay). Furthermore, the increase in cytosolic cathepsin B activity was blocked by the cathepsin B inhibitor Z-Arg-Lys-AOMK (2 μM) during low nutrient stress. (n=6, mean+sem, *p<0.05, student's t-test).

The test system of assay [3] is mouse BV2 microglia cells. Nature of the assay: Cell death (LDH release) induced by low nutrient stress in microglia cells. In kind it is cell-based. Particulars: 2 μM; 0% FBS for 24 hours. How it is done:
as §2

Results on one substance are retold here after patent publication US20260265298A1, “PEPTIDE SUBSTRATES AND INHIBITORS OF CATHEPSIN B” (The Regents of the University of California, priority 2023, published 2026).

As for Z-Arg-Lys-AOMK, the “motor deficit (rotarod)” value with TBI mice is listed as “improved motor deficit”. For the same substance, on cathepsin B [1], the “cathepsin B activity in brain cortex cytosol” value is recorded as “inhibition of cathepsin B activity” and the “cathepsin B activity in brain cortex homogenate” value was “inhibition of cathepsin B activity”. In addition, the “increase in cytosolic cathepsin B activity” value at cathepsin B [2] is listed as “blocked”. Also, in assay [3], the “stress-induced increase in cell death (LDH released into the culture media)” value was “reduced”.
